Structures can show the parent of a compound that is named as a salt. Where two headings read alike, the source gives them in different places.
How the values were obtained:
male Wistar rats = assay: Elevated plus-maze, rat (anxiolytic activity); assay type: in vivo; conditions: doses in brackets; time in open arms
Description: (§1) The elevated plus-maze is a conflict test that probes anxiolytic activity of test compounds (Lister, Psychopharmacology, 1987, 92:180). It is based on the fact that exposure of an animal to an elevated open arm leads to an avoidance response considerably stronger than that evoked by exposure to an enclosed arm.
The same protocol was applied in rats (male Wistar strain), but a larger maze was used (open arms 50×10 cm, enclosed arms 50×10×40 cm) raised 50 cm above the floor.

CD1 mice = assay: Elevated plus-maze, mouse (anxiolytic activity); assay type: in vivo; conditions: for Mouse EPM, improvement in performance at the dose range tested: doses in brackets, time in open arms, 5 min test
Description: as §1
The apparatus required to perform this test in mice is made of plywood and consists of two open arms (17×8 cm) and two enclosed arms (17×8×15 cm) extending from a central platform (8×8 cm). It is mounted on a plywood base rising 39 cm above the floor. Mice are released on the central platform and the time spent in the open and enclosed arms is recorded during a 5 minute test period. The test compounds were administered to CD1 mice 15 minutes before the test.

[1] = biological target: neuronal nicotinic cholinergic channel receptor; assay: [3H]-cytisine binding to neuronal nicotinic cholinergic channel receptors, crude synaptic membranes from whole rat brain
Procedure: Binding of [^3 H]-cytisine ([^3 H]-CYT) to nicotinic receptors was accomplished using crude synaptic membrane preparations from whole rat brain (Pabreza et al., Molecular Pharmacol., 1990, 39:9). Washed membranes were stored at -80° C. prior to use. Frozen aliquots were slowly thawed and resuspended in 20 volumes of buffer (containing: 120 mM NaCl, 5 mM KCl, 2 mM MgCl2, 2 mM CaCl2 and 50 mM Tris-Cl, pH 7.4 @4° C.). After centrifuging at 20,000×g for 15 minutes, the pellets were resuspended in 30 volumes of buffer. Homogenate (containing 125-150 μg protein) was added to triplicate tubes containing concentrations of test compound and [^3 H]-CYT (1.25 nM) in a final volume of 500 μL. Samples were incubated for 60 minutes at 4° C., then rapidly filtered through Whatman GF/B filters presoaked in 0.5% polyethylimine using 3×4 mL of ice-cold buffer. The filters are counted in 4 mL of Ecolume® (ICN).

[2] = in vivo; cited from earlier work
[3] = cited from earlier work
nicotinic receptors = conditions: chronic nicotine administration; cited from earlier work
rats = conditions: acutely- and chronically-administered, rats incl. aged; cited from earlier work
cigarette smokers = conditions: double-blind studies; cited from earlier work
Male CD-1 mice = assay: Analgesia testing, automated hot-plate (55° C.); assay type: in vivo, mouse; conditions: latency to tenth jump; morphine at 12, Example 3 at 19 umol/kg
Procedure: Analgesia was measured using an automated hot-plate analgesia monitor (model #AHP16AN, Omnitech Electronics, Inc., Columbus, Ohio). The temperature of the hot-plate was maintained at 55° C. Male CD-1 mice (Charles River, Portage, Mich.) weighing 30 to 35 g were used for all testing. Mice were placed on the hot-plate and the latency to jump (i.e., first 10 jumps) was recorded. Mice were removed from the apparatus either after ten jumps were made or a maximally-allowed time of 240 sec elapsed, whichever occurred first. The design of the apparatus allowed for testing of several animals (e.g., 8) at once. The latency (sec) until the tenth jump was used for statistical analysis. Data (Table 2) were statistically evaluated with ANOVA (StatView II™ program, Abacus Concepts, Inc., Berkeley, Calif.) and compared to the reference standard analgesic morphine.

[4] = test system: cardiac muscarinic receptors; conditions: cited from earlier work
[5] = test system: cortical muscarinic receptors; conditions: cited from earlier work
parietotemporal cortex = parietotemporal cortex of humans; cited from earlier work
[6] = [3H]-cytisine (1.25 nM), whole rat brain membranes, 4° C., 60 min

| Compound | Ki [1, 6] | further results |
| --- | --- | --- |
| Cl.O=[N+]([O-])c1cccc(OC[C@@H]2CCCN2)c1 [Example 1, 2(S)-(3-(Nitro)phenoxymethyl)pyrrolidine hydrochloride] | 0.0029 µM | Rat EPM, improvement in performance at the dose range tested (male Wistar rats): significant [0.19, 6.2]; Mouse EPM, improvement in performance at the dose range tested (CD1 mice): significant [0.62-1.9] |
| CN1CCC[C@H]1COc1cccc(F)c1 [Example 6, 2(S)-(3-Fluorophenoxymethyl)-1-methyl-pyrrolidine hydrochloride] | 0.0051 µM |  |
| c1ccc(OC[C@@H]2CCCN2)cc1 [Example 21, 2(S)-(phenoxymethyl)pyrrolidine hydrochloride] | 0.108 µM |  |
| CN1CCC[C@H]1COc1cccc([N+](=O)[O-])c1 [Example 2, 1-Methyl-2(S)-(3-(nitro)phenoxymethyl)pyrrolidine hydrochloride] | 0.009 µM |  |
| CC(=O)Nc1cccc(OC[C@@H]2CCCN2)c1 [Example 17, (S)-2-(3-(acetamido)phenoxymethyl)pyrrolidine hydrochloride] | 0.142 µM |  |
| CN1CCC[C@H]1c1cccnc1 [nicotine] |  | Anxiolytic properties [2]: anxiolytic properties; Oral bioavailability [3]: poor oral bioavailability; Up-regulation of the number of receptors (nicotinic receptors): 50-100%; Effect on cognitive function (rats): enhances cognitive function in rats; Suppressing or preventing signs and symptoms of withdrawal vs placebo (cigarette smokers): far superior to a placebo |
| N#Cc1cccc(OC[C@@H]2CCCN2)c1 [Example 18, (S)-2-(3-cyanophenoxymethyl)pyrrolidine hydrochloride] | 0.018 µM |  |
| CN1CC[C@]23c4c5ccc(O)c4O[C@H]2[C@@H](O)C=C[C@H]3[C@H]1C5 [Morphine, reference compound] |  | Percent change from saline (Male CD-1 mice): 257% |
| Fc1cc(F)cc(OC[C@@H]2CCCN2)c1 [Example 7, 2(S)-(3,5-Difluorophenoxymethyl)pyrrolidine hydrochloride] | 0.0223 µM |  |
| Fc1cccc(OC[C@@H]2CCCN2)c1 [Example 5, 2(S)-(3-Fluorophenoxymethyl)-pyrrolidine hydrochloride] | 0.0172 µM |  |
| CCN1C(=O)CC2(CCN(C)CC2)C1=O [RS-86] |  | Agonism at cardiac muscarinic receptors [4]: full agonist; Agonism at cortical muscarinic receptors [5]: partial agonist; Potency and selectivity for CNS receptors [5]: poor potency and lack of selectivity for CNS receptors |
| Fc1cccc(OC[C@H]2CCCN2)c1 [Example 9, 2(R)-(3-Fluorophenoxymethyl)-pyrrolidine hydrochloride] | 0.0116 µM |  |
| CN1CCC[C@H]1COc1cc(F)cc(F)c1 [Example 8, 2(S)-(3,5-Difluorophenoxymethyl)-1-methyl-pyrrolidine hydrochloride] | 0.0157 µM |  |
| CN1CCC[C@H]1COc1cccc(F)c1F [Example 12, 2(S)-(2,3-Difluorophenoxymethyl)-1-methylpyrrolidine hydrochloride] | 0.0814 µM |  |
| O=[N+]([O-])c1cccc(OC[C@@H]2CCN2)c1 [Example 22, 2(S)-(3-(nitro)phenoxymethyl)azetidine methanesulfonate] | 0.0068 µM |  |
| CNC1(C)C2CCC(C2)C1(C)C (stereo not drawn) [mecamylamine] |  | Effect on resting cortical perfusion (parietotemporal cortex): reduces resting cortical perfusion |
| CN1CCCC1c1cccnc1 (single isomer, unassigned; (-)) [(-)-nicotine, reference compound] |  | Rat EPM, improvement in performance at the dose range tested (male Wistar rats): significant [1.9]; Increase in time spent in the open arms of the maze vs saline (CD1 mice; 0.62 and 1.9 μmol/kg, p<0.05, 15 minutes before test): significant increase; Mouse EPM, improvement in performance at the dose range tested (CD1 mice): significant [0.19-0.62]; Ki [1]: […] |
| CN1CCC[C@H]1COc1cccc(Cl)c1 [Example 15, 2(S)-(3-Chlorophenoxymethyl)-1-methylpyrrolidine hydrochloride] | 0.0377 µM |  |
| CN1CCC[C@@H]1COc1cccc([N+](=O)[O-])c1 [Example 4, (R)-1-Methyl-2-(3-(nitro)phenoxymethyl)pyrrolidine] | 0.132 µM |  |
| CN1CCC[C@H]1COc1ccc(Cl)c(Cl)c1 [Example 16, 2(S)-(3,4-Dichlorophenoxymethyl)-1-methylpyrrolidine hydrochloride] | 0.112 µM |  |
| Cl.O=[N+]([O-])c1cccc(OC[C@H]2CCCN2)c1 [Example 3, 2(R)-(3-(nitro)phenoxymethyl)pyrrolidine hydrochloride] | 0.0025 µM | Percent change from saline (Male CD-1 mice): 60.7% |
| CN1CC[C@@H]1COc1cccc([N+](=O)[O-])c1 [Example 23, (R)-1-methyl-2-(3-(nitro)phenoxymethyl)azetidine hydrochloride] | 0.029 µM |  |
| CN1CCC[C@@H]1COc1cccc(F)c1 [Example 10, 2(R)-(3-Fluorophenoxymethyl)-1-methylpyrrolidine hydrochloride] | 0.0907 µM |  |
| Fc1cccc(OC[C@@H]2CCCN2)c1F [Example 11, 2(S)-(2,3-Difluorophenoxymethyl)pyrrolidine hydrochloride] | 0.0743 µM |  |
| CN1CCC[C@H]1COc1cccc(C#N)c1 [Example 19, (S)-2-(3-cyanophenoxymethyl)-1-methylpyrrolidine hydrochloride] | 0.064 µM |  |
| Fc1ccc(OC[C@@H]2CCCN2)cc1F [Example 13, 2(S)-(3,4-Difluorophenoxymethyl)pyrrolidine hydrochloride] | 0.0175 µM |  |
| CN1CCC[C@H]1COc1ccc(F)c(F)c1 [Example 14, 2(S)-(3,4-Difluorophenoxymethyl)-1-methylpyrrolidine hydrochloride] | 0.018 µM |  |

Source: patent US5472958A, “2-((nitro)phenoxymethyl) heterocyclic compounds that enhance cognitive function” (Abbott Laboratories, priority 1994, dated 1995)
